In patent publication US9139557B2, “Carboxamide compounds and their use as calpain inhibitors” (Abbott GmbH & Co. KG, priority 2006, dated 2015):

What was measured:
Assay type in all cases: biochemical
cathepsin S = target: T1, cathepsin S (Homo sapiens, UniProt P25774); test: Cathepsin S enzyme inhibition in vitro (kinetic fluorescence assay); settings: Ki(cathepsin S)/Ki(calpain) ratio
T1 construct: purchased Calbiochem 219343; host or cells: E. coli
Procedure: (§1) Testing for blockade of the corresponding enzymic activities was carried out by means of kinetic fluorescence assays (excitation 390 nm, emission 460 nm).
(§2) Apparent Ki values were calculated from the experimentally determined IC50 values by the Cheng-Prussoff relation assuming a reversible competitive enzyme inhibition. The Km values of the substrates used under the assay conditions indicated above were: 90 μM (Z-Phe-Arg-AMC, cathepsin B), 10 μM (Z-Gly-Pro-Arg-AMC, cathepsin K), 2 μM (Z-Phe-Arg-AMC, cathepsin L), and 30 μM (Z-Val-Val-Arg-AMC, cathepsin S).
(§3) The indicated Ki values are averages of the inhibition constants calculated on the basis of 2 to 4 independent dose-effect plots.
(§4) • 1. Calpain I: • 20 nM calpain-I—isolated from human erythrocytes (Calbiochem #208713), 100 μM Suc-Leu-Tyr-AMC (Bachem #1-1355) as substrate in buffer with 62 mM imidazole, 0.3 mM CaCl2, 0.10% CHAPS, 0.05% BSA, 1 mM DTT at pH 7.3 and room temperature. • 2. Cathepsin B: • 0.25 nM cathepsin B—isolated from human liver (Calbiochem #219362), 100 μM Z-Phe-Arg-AMC (Bachem #1-1160) as substrate 50 mM MES, 2 mM EDTA, 0.05% Brij 35, 2.5 mM L-cysteine, pH 6.0, room temperature. • 3. Cathepsin K: • 3 nM cathepsin K—activated from recombinant human procathepsin K from E. coli (Calbiochem #342001), 10 μM Z-Gly-Pro-Arg-AMC (Biomol #P-142) as substrate in 50 mM MES, 2 mM EDTA, 0.05% Brij 35, 2.5 mM L-cysteine, pH 6.0, room temperature. • 4. Cathepsin L: • 1 nM cathepsin L—isolated from human liver (Calbiochem #219402), 2 μM Z-Phe-Arg-AMC (Bachem #1-1160) as substrate in 50 mM MES, 2 mM EDTA, 0.05% Brij 35, 2.5 mM L-cysteine, pH 6.0, room temperature. • 5. Cathepsin S: • 0.5 nM recombinant human cathepsin S from E. coli (Calbiochem #219343), 20 μM Z-Val-Val-Arg-AMC (Bachem #1-1540) as substrate in 50 mM MES, 2 mM EDTA, 0.05% Brij 35, 2.5 mM L-cysteine, pH 6.0, room temperature.

cathepsin B = target: T2, cathepsin B (Homo sapiens, UniProt P07858); test: Cathepsin B enzyme inhibition in vitro (kinetic fluorescence assay); settings: Ki(cathepsin B)/Ki(calpain) ratio
T2 construct: cathepsin B—isolated from human liver; purchased Calbiochem 219362; host or cells: human liver (tissue isolate)
Procedure: as §1, §2, §3, §4

cathepsin L = target: T3, cathepsin L (Homo sapiens, UniProt P07711); test: Cathepsin L enzyme inhibition in vitro (kinetic fluorescence assay); settings: Ki(cathepsin L)/Ki(calpain) ratio
T3 construct: cathepsin L—isolated from human liver; purchased Calbiochem 219402; host or cells: human liver (tissue isolate)
T3 sequence (P07711 114-333): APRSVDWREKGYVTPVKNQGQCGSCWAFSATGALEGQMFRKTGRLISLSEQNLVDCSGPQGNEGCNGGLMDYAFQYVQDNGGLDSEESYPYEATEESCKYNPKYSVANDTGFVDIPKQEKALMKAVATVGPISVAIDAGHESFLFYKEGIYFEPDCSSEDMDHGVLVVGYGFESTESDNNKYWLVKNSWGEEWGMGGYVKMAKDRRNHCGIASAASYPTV
Procedure: as §1, §2, §3, §4

T1 sequence (P25774 115-331): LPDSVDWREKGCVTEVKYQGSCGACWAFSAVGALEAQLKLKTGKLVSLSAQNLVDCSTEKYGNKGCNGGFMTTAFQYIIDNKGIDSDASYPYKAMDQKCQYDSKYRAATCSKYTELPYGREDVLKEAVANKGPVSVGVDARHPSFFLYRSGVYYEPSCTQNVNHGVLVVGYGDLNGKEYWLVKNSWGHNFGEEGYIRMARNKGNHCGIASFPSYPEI

SMILES | Sel cat. S (cathepsin S) | Sel cat. B (cathepsin B) | Sel cat. L (cathepsin L)
CCCCC(NC(=O)c1cccnc1-n1ccc(-c2ccc(N3CCOCC3)cc2)n1)C(=O)C(N)=O (centres unmarked) [Example 33, N-{1-[Amino(oxo)acetyl]pentyl}-2-[3-(4-morpholin-4-ylphenyl)-1H-pyrazol-1-yl]nicotinamide] | + (+ means 50≦Ki(cathepsin S)/Ki(calpain)<100) | + (+ means 10≦Ki(cathepsin B)/Ki(calpain)<30) | 
Cc1cc(-c2ccccc2)nn1-c1ncccc1C(=O)NC(Cc1ccccc1)C(=O)C(N)=O (centres unmarked) [Example 61, N-(3-Amino-1-benzyl-2,3-dioxopropyl)-2-(5-methyl-3-phenyl-1H-pyrazol-1-yl)nicotinamide] | ++ (++ means a Ki(cathepsin S)/Ki(calpain) ratio of ≧100) | + (+ means 10≦Ki(cathepsin B)/Ki(calpain)<30) | 
Cl.NC(=O)C(=O)C(Cc1ccccc1)NC(=O)c1cccnc1-n1cnc(-c2ccc(C(F)(F)F)cc2)c1 (centres unmarked) [Example 18, N-(3-Amino-1-benzyl-2,3-dioxopropyl)-2-{4-[4-(trifluoromethyl)phenyl]-1H-imidazol-1-yl}nicotinamide hydrochloride] | ++ (++ means a Ki(cathepsin S)/Ki(calpain) ratio of ≧100) |  | + (+ means 30≦Ki(cathepsin L)/Ki(calpain)<50)
N#Cc1ccc(-c2ccn(-c3ncccc3C(=O)NC(Cc3ccccc3)C(=O)C(N)=O)n2)cc1 (centres unmarked) [Example 62, N-(3-Amino-1-benzyl-2,3-dioxopropyl)-2-[3-(4-cyanophenyl)-1H-pyrazol-1-yl]nicotinamide] | ++ (++ means a Ki(cathepsin S)/Ki(calpain) ratio of ≧100) |  | ++ (++ means a Ki(cathepsin L)/Ki(calpain) ratio of ≧50)
CCCCC(NC(=O)c1cc(Cl)cnc1-n1ccc(-c2ccccc2)n1)C(=O)C(N)=O (centres unmarked) [Example 28, N-{1-[Amino(oxo)acetyl]pentyl}-5-chloro-2-(3-phenyl-1H-pyrazol-1-yl)nicotinamide] |  | + (+ means 10≦Ki(cathepsin B)/Ki(calpain)<30) | 
CS(=O)(=O)NCc1cn(-c2ncccc2C(=O)NC(Cc2ccccc2)C(=O)C(N)=O)nc1-c1ccc(F)cc1 (centres unmarked) [Example 187, N-[3-Amino-2,3-dioxo-1-(phenylmethyl)propyl]-2-[3-(4-fluorophenyl)-4-{[(methylsulfonyl)amino]methyl}-1H-pyrazol-1-yl]pyridine-3-carboxamide] | ++ (++ means a Ki(cathepsin S)/Ki(calpain) ratio of ≧100) |  | + (+ means 30≦Ki(cathepsin L)/Ki(calpain)<50)
CCCCC(NC(=O)c1cccnc1-n1cnc(-c2ccc(C(F)(F)F)cc2)c1)C(=O)C(N)=O.Cl (centres unmarked) [Example 17, N-{1-[Amino(oxo)acetyl]pentyl}-2-{4-[4-(trifluoromethyl)phenyl]-1H-imidazol-1-yl}nicotinamide hydrochloride] | + (+ means 50≦Ki(cathepsin S)/Ki(calpain)<100) |  | ++ (++ means a Ki(cathepsin L)/Ki(calpain) ratio of ≧50)
Cc1cn(-c2ncccc2C(=O)NC(Cc2ccccc2)C(=O)C(N)=O)nc1-c1ccccc1 (centres unmarked) [Example 84, N-(3-Amino-1-benzyl-2,3-dioxopropyl)-2-(4-methyl-3-phenyl-1H-pyrazol-1-yl)nicotinamide] | ++ (++ means a Ki(cathepsin S)/Ki(calpain) ratio of ≧100) | + (+ means 10≦Ki(cathepsin B)/Ki(calpain)<30) | ++ (++ means a Ki(cathepsin L)/Ki(calpain) ratio of ≧50)
CC(C)c1ccc2c(c1)-c1nn(-c3ncccc3C(=O)NC(Cc3ccccc3)C(=O)C(N)=O)cc1CO2 (centres unmarked) [Example 144, N-[3-Amino-2,3-dioxo-1-(phenylmethyl)propyl]-2-[8-(1-methylethyl)chromeno[4,3-c]pyrazol-2(4H)-yl]pyridine-3-carboxamide] | ++ (++ means a Ki(cathepsin S)/Ki(calpain) ratio of ≧100) | + (+ means 10≦Ki(cathepsin B)/Ki(calpain)<30) | ++ (++ means a Ki(cathepsin L)/Ki(calpain) ratio of ≧50)
NC(=O)C(=O)C(Cc1cccs1)NC(=O)c1cccnc1-n1ccc(-c2ccc(F)cc2)n1 (centres unmarked) [Example 57, N-[3-Amino-2,3-dioxo-1-(2-thienylmethyl)propyl]-2-[3-(4-fluorophenyl)-1H-pyrazol-1-yl]nicotinamide] | ++ (++ means a Ki(cathepsin S)/Ki(calpain) ratio of ≧100) |  | ++ (++ means a Ki(cathepsin L)/Ki(calpain) ratio of ≧50)
NC(=O)C(=O)C(Cc1ccc(Br)cc1)NC(=O)c1cccnc1-n1ccc(-c2ccccc2)n1 (centres unmarked) [Example 122, N-{3-Amino-1-[(4-bromophenyl)methyl]-2,3-dioxopropyl}-2-(3-phenyl-1H-pyrazol-1-yl)pyridine-3-carboxamide] | ++ (++ means a Ki(cathepsin S)/Ki(calpain) ratio of ≧100) | ++ (++ means a Ki(cathepsin B)/Ki(calpain) ratio of ≧30) | ++ (++ means a Ki(cathepsin L)/Ki(calpain) ratio of ≧50)
NC(=O)C(=O)C(Cc1ccccc1)NC(=O)c1cccnc1-n1ccc(-c2ccc(N3CCCCC3)cc2)n1 (centres unmarked) [Example 64, N-(3-Amino-1-benzyl-2,3-dioxopropyl)-2-[3-(4-piperidin-1-ylphenyl)-1H-pyrazol-1-yl]nicotinamide] | ++ (++ means a Ki(cathepsin S)/Ki(calpain) ratio of ≧100) | + (+ means 10≦Ki(cathepsin B)/Ki(calpain)<30) | 
NC(=O)C(=O)C(Cc1ccccc1)NC(=O)c1ccccc1-n1ccc(-c2ccccc2)n1 (centres unmarked) [Example 106, N-[3-Amino-2,3-dioxo-1-(phenylmethyl)propyl]-2-(3-phenyl-1H-pyrazol-1-yl)benzamide] | ++ (++ means a Ki(cathepsin S)/Ki(calpain) ratio of ≧100) |  | + (+ means 30≦Ki(cathepsin L)/Ki(calpain)<50)
NC(=O)C(=O)C(Cc1ccccc1)NC(=O)c1cccnc1-n1cc2ccccc2n1 (centres unmarked) [Example 78, N-(3-Amino-1-benzyl-2,3-dioxopropyl)-2-(2H-indazol-2-yl)nicotinamide] | + (+ means 50≦Ki(cathepsin S)/Ki(calpain)<100) |  | ++ (++ means a Ki(cathepsin L)/Ki(calpain) ratio of ≧50)
NC(=O)C(=O)C(Cc1ccccc1)NC(=O)c1cccnc1-n1cc(COc2ccccc2)c(-c2ccc(F)cc2)n1 (centres unmarked) [Example 179, N-[3-Amino-2,3-dioxo-1-(phenylmethyl)propyl]-2-{3-(4-fluorophenyl)-4-[(phenyloxy)methyl]-1H-pyrazol-1-yl}pyridine-3-carboxamide] | ++ (++ means a Ki(cathepsin S)/Ki(calpain) ratio of ≧100) |  | + (+ means 30≦Ki(cathepsin L)/Ki(calpain)<50)
CC(C)CC(NC(=O)c1cc(Cl)cnc1-n1ccc(-c2ccccc2)n1)C(=O)C(N)=O (centres unmarked) [Example 32, N-{1-[Amino(oxo)acetyl]-3-methylbutyl}-5-chloro-2-(3-phenyl-1H-pyrazol-1-yl)nicotinamide] |  | + (+ means 10≦Ki(cathepsin B)/Ki(calpain)<30) | 
CCCCC(NC(=O)c1cccnc1-n1ccc(-c2ccc(OC)cc2)n1)C(=O)C(N)=O (centres unmarked) [Example 49, N-{1-[Amino(oxo)acetyl]pentyl}-2-[3-(4-methoxyphenyl)-1H-pyrazol-1-yl]nicotinamide] | ++ (++ means a Ki(cathepsin S)/Ki(calpain) ratio of ≧100) |  | + (+ means 30≦Ki(cathepsin L)/Ki(calpain)<50)
NC(=O)C(=O)C(Cc1ccccc1)NC(=O)c1cccnc1-n1ccc(-c2ccc(Cl)cc2)n1 (centres unmarked) [Example 39, N-(3-Amino-1-benzyl-2,3-dioxopropyl)-2-[3-(4-chlorophenyl)-1H-pyrazol-1-yl]nicotinamide] | ++ (++ means a Ki(cathepsin S)/Ki(calpain) ratio of ≧100) |  | ++ (++ means a Ki(cathepsin L)/Ki(calpain) ratio of ≧50)
NC(=O)C(=O)C(Cc1ccccc1)NC(=O)c1cccnc1-n1cnc(-c2ccc(Cl)cc2)c1 (centres unmarked) [Example 9, N-(3-Amino-1-benzyl-2,3-dioxopropyl)-2-[4-(4-chlorophenyl)-1H-imidazol-1-yl]nicotinamide] | ++ (++ means a Ki(cathepsin S)/Ki(calpain) ratio of ≧100) |  | + (+ means 30≦Ki(cathepsin L)/Ki(calpain)<50)
NC(=O)C(=O)C(Cc1ccccc1)NC(=O)c1cccnc1-n1cc2c(n1)-c1ccccc1OCC2 (centres unmarked) [Example 141, N-[3-Amino-2,3-dioxo-1-(phenylmethyl)propyl]-2-(4,5-dihydro-2H-Mbenzoxepino[5,4-c]pyrazol-2-yl)pyridine-3-carboxamide] | ++ (++ means a Ki(cathepsin S)/Ki(calpain) ratio of ≧100) |  | ++ (++ means a Ki(cathepsin L)/Ki(calpain) ratio of ≧50)
